Source: ChEMBL document CHEMBL2040812, “A novel franchetine type norditerpenoid isolated from the roots of Aconitum carmichaeli Debx. with potential analgesic activity and less toxicity” (Bioorg Med Chem Lett, 2012)

Legend:
[1] = Therapeutic index, ratio of LD50 in Kunming mouse to ED50 for analgesic activity in mouse; assay type: organism-based; conditions: in vivo, read-out: Ratio LD50/ED50
[2] = Toxicity in ig dosed Kunming mouse; assay type: organism-based; conditions: in vivo, po
[3] = test system: Mus musculus; test: Analgesic activity in ig dosed mouse by hot plate test; assay type: functional; conditions: po

| SMILES | selectivity ratio [1] | LD50 [2] [mg/kg] | ED50 [3] [mg/kg] |
| --- | --- | --- | --- |
| CCN1C[C@]2(COC)[C@H](O)C[C@H](OC)[C@@]34[C@@H]5C[C@@]6(O)[C@H](OC(=O)c7ccccc7)[C@@H]5[C@@](OC(C)=O)([C@@H]([C@H](OC)[C@H]23)[C@@H]14)[C@@H](O)[C@@H]6OC [ACONITINE] | 2 | 0.16 | 0.08 |
| CCN1C[C@]2(COC)CC[C@H](OC)[C@@]34C1O[C@H](C=C1[C@H]5[C@@H](O)[C@H](C[C@H]53)[C@@H](OC)[C@H]1O)[C@H]24 [GUIWULINE] | 33 | 500 | 15 |
